From US6821993B1, “Triazepine derivatives as neurotrophic agents” (Ortho-McNeil Pharmaceutical, Inc., priority 2001, dated 2004)

How the values were obtained:
[1] = system: Dorsal Root Ganglion (DRG); assay: Dorsal Root Ganglion (DRG) culture neurite outgrowth; assay type: cell-based, rat; settings: neurite outgrowth from DRG of newborn or 1-day-old CD rats; test compound 50-250 nM; examined on days 1-5
Procedure: DRG were dissected from newborn or 1-day-old CD rats and placed into PBS on ice. After rinsing twice with sterile plating medium, DRG were transferred to empty wells of a 6-well plate coated with polyornithine/laminin (Becton Dickinson Labware) using #7 curved forceps. Three ml/well of plating medium were then added very gently, so as not to disturb the DRG plating medium is Leibovitz's L-15 medium (Gibco), plus 0.6% glucose, 33 mM KCl, 10% FCS, 10 mM Hepes and penicillin/streptomycin/glutamine. After overnight incubation at about 37° C. in 5% CO2, this medium was replaced with 3 mL/well of assay medium [Leibovitz's L-15 medium plus 0.6% glucose, 1% FCS, 1% N-2 supplement (Gibco), 10 μM ara-C, 10 mM Hepes, and penicillin/streptomycin/glutamine] containing either vehicle (DMSO, 1/200,000), positive control (2-4 ng/mL NGF) or test compound (50-250 nM). All media were prepared fresh daily. DRG were microscopically examined for neurite outgrowth on days 1-5.

[2] = system: Primary Rat Hippocampal Cells; assay: Neurite outgrowth assay in primary rat hippocampal cells; assay type: cell-based; settings: MAP-2 immunofluorescence, embryonic day 18 rat hippocampal cells, 7 days in culture
Procedure: Hippocampal cells were dissected from the brains of embryonic day 18 rat pups and dissociated with trypsin (1 mg/mL) and trituration. Cells were seeded at 30,000 cells/well in 96-well plates filled with 100 μL MEM and 10% FBS. At 7 days in culture, cells were fixed with 4% paraformaldehyde and immuno-fluorescence is performed.
(§1) Cultures were incubated with normal horse serum (1:50; Vector Labs) or about 20 min, rinsed and then incubated with primary antibody, microtubule associated-protein 2 (anti-mouse MAP-2; 1:1000; Chemicon) for about 2 h at about RT. Following primary antibody, cultures were rinsed and incubated with fluorescein anti-mouse IgG (rat absorbed; 1:50; Vector Labs) for about 1 h. After fluorescein incubation, the cultures were rinsed and read in PBS on a fluorescent plate reader (excitation: 485 nm; emission: 530 nm). A compound was regarded as active if the neurite outgrowth response is greater than the mean DMSO-treated control response on the same plate. The response to test compound was reported as percent of DMSO-treated control. The signal-to-noise separation is consistent: the fluorescence from DMSO control wells is at least twofold greater than blank wells.

[3] = system: M17 human neuroblastoma cells; assay: Neurite outgrowth assay in human M17 neuroblastoma cells; assay type: cell-based; settings: MAP-2 immunofluorescence
Procedure: M17 human neuroblastoma cells were cultured in 1:1 ratio of EMEM and Ham's F12 with 1×NEAA and 10% FBS. The culture media contained 1×PSN antibiotic and was exchanged every other day, and the cells were passed in log phase near confluence.
as §1

| SMILES | DRG [1] | Rat Hippocampal Cell Response [2] | M17 Cell Response [3] |
| --- | --- | --- | --- |
| CCC(C)(C)C1=NNC(=O)[C@@H]2CCCN2C1=O [(1), 1H-pyrrolo[2,1-d][1,2,5]triazepine-1,5(2H)-dione, 4-(1,1-dimethylpropyl)-7,8,9,9a-tetrahydro-, (9aS)-] | + (An experiment was considered positive (+) if the instant compound induced neurites of ≧1 diameter of the DRG) | 123% of DMSO-treated control | 115% of DMSO-treated control |
| CCC(C)(C)C1=NN(CCCc2ccccc2)C(=O)[C@@H]2CCCN2C1=O [(2), 1H-pyrrolo[2,1-d][1,2,5]triazepine-1,5(2H)-dione, 4-(1,1-dimethylpropyl)-7,8,9,9a-tetrahydro-2-(3-phenylpropyl)-, (9aS)-] |  | <100% of DMSO-treated control | <100% of DMSO-treated control |
| CCC(C)(C)C1=NN(CCCc2cccnc2)C(=O)[C@@H]2CCCN2C1=O [(3), 1H-pyrrolo[2,1-d][1,2,5]triazepine-1.5(2H)-dione, 4-(1,1-dimethylpropyl)-7,8,9,9a-tetrahydro-2-[3-(3-pyridinyl)propyl]-, (9aS)-] |  | 145% of DMSO-treated control | <100% of DMSO-treated control |
| CCC(C)(C)C1=NNC(=O)C2CCCCN2C1=O (stereo not shown) [(4)] |  | 140% of DMSO-treated control | <100% of DMSO-treated control |
| O=C1NN=C(c2cccs2)C(=O)N2CSC[C@@H]12 [(5), 1H,7H-thiazolo[4,3-d][1,2,5]triazepine-1,5(2H)-dione, 9,9a-dihydro-4-(2-thienyl)-, (9aR)-] |  | 105% of DMSO-treated control | <100% of DMSO-treated control |
| O=C1[C@@H]2CSCN2C(=O)C(c2cccs2)=NN1CCC(c1ccccc1)c1ccccc1 [(6), 1H,7H-thiazolo[4,3-d][1,2,5]triazepine-1,5(2H)-dione, 2-(3,3-diphenylpropyl)-9,9a-dihydro-4-(2-thienyl)-, (9aR)-] |  | 105% of DMSO-treated control | <100% of DMSO-treated control |
